US20070053994A1, “Anti-inflammatory treatment” (priority 2003, published 2007)

System: severe psoriasis (person)
Experiment: Case report: treatment of severe psoriasis of hands, arms and feet
Type: in vivo, human
Settings: effects did not last following long term treatment

C[C@]12CCC(=O)C=C1CC[C@@H]1[C@@H]2C(=O)C[C@@]2(C)[C@H]1CC[C@]2(O)C(=O)CO [cortisone]
effect of earlier treatment on psoriasis (patient history): some effects
